US8163536B2, “Device for preparing an undifferentiated cell from a more committed cell” (Tristem Trading (Cyprus) Limited, priority 2000, dated 2012)

How the values were obtained:
[1] = system: enriched, purified, normal B lymphocytes; experiment: Flow cytometry of enriched, purified, normal B lymphocytes treated with one of three agents (FIG. 20); format: cell-based, human; conditions: compared with the negative control
Experimental: Initial studies actually identified three agents—granulocyte/monocyte-colony stimulating factor (GM-CSF), erythropoietin and mAb CR3/43. A preparation of enriched, purified, normal B lymphocytes was treated in a device according to the present invention with one of these three agents in a similar manner to that described for CR3/43 and TAL.1B5 above and treated samples examined by flow cytometry as described above. […] In particular, all three agents increased the relative number of CD34^+ cells in the cell population (see FIG. 20).

displaced cells = conditions: pre-determined period, then calcium containing medium containing cortisone
Description: The erythroid progenitors can be cultured and expanded for long periods of time and may be used in the treatment red blood disorder and red blood shortages.

Row | Molecule | relative number of CD34+ cells in the cell population (FIG. 20) [1] | retrodifferentiation of more committed cells (displaced cells)
1 | GM-CSF: granulocyte/monocyte-colony stimulating factor, haematopoietic growth factor | increased | –
2 | O=C(O)CN(CCN(CC(=O)O)CC(=O)O)CC(=O)O [EDTA] | – | caused more committed cells to retrodifferentiate into undifferentiated cells
